Assay results published in patent publication US20170022171A1, “2,5-DISUBSTITUTED CYCLOPENTANECARBOXYLIC ACIDS AND THEIR USE” (Bayer Pharma Aktiengesellschaft, priority 2014, published 2017).

Assays:
Type in all cases: biochemical
MMP-1 = molecular target: T1, MMP-1 (Homo sapiens, UniProt P03956); assay: In vitro MMP-1 inhibition test
T1 construct: purchased R&D Systems 901-MP
T1 sequence (P03956 100-469): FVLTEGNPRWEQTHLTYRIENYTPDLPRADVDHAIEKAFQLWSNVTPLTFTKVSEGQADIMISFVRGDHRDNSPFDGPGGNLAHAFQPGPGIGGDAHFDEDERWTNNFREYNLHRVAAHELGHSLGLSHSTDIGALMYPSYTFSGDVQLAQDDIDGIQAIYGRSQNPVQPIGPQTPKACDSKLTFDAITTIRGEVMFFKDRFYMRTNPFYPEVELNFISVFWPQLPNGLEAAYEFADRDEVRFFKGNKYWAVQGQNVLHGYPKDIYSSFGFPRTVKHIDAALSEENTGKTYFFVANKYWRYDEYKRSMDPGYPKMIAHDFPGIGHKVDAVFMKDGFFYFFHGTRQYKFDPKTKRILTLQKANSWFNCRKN
Text: (§1) The MMP-mediated amidolytic cleavage of a suitable peptide substrate leads to an increase in fluorescent light here too. The signal intensity of the fluorescent light is directly proportional to the enzyme activity. The active concentration of a test compound at which half the enzyme is inhibited (50% signal intensity of the fluorescent light) is reported as the IC50 value.
(§2) Recombinant MMP-1 (from R&D Systems, 901-MP) is chemically activated in accordance with the manufacturer's instructions using APMA. 1 μl of the test compound to be analysed (as a solution in DMSO, suitable concentrations, for example, 1 nM to 30 μM) is pipetted into 24 μl of activated enzyme (final concentration, for example, 2 nM) in reaction buffer (50 mM Tris/HCl pH 7.5, 10 mM CaCl2, 150 mM NaCl, 0.05% Brij®-35) in a white 384-hole microtiter plate (MTP). The enzymatic reaction is started by adding the intramolecularly quenched Mca-Pro-Leu-Gly-Leu-Dpa(Dnp)-Ala-Arg-NH2 substrate (final concentration, for example, 10 μM; R&D Systems, ES-001), so as to result in a total test volume of 50 μl. The course of the MMP-1 reaction is measured by measuring the fluorescence intensity (excitation 320 nm, emission 410 nm) over a suitable period of time (for example over 120 min at a temperature of 32° C.).

MMP-2 = molecular target: T2, MMP-2 (Homo sapiens, UniProt P08253); assay: In vitro MMP-2 inhibition test
T2 construct: purchased R&D Systems 902-MP
T2 sequence (P08253 110-660): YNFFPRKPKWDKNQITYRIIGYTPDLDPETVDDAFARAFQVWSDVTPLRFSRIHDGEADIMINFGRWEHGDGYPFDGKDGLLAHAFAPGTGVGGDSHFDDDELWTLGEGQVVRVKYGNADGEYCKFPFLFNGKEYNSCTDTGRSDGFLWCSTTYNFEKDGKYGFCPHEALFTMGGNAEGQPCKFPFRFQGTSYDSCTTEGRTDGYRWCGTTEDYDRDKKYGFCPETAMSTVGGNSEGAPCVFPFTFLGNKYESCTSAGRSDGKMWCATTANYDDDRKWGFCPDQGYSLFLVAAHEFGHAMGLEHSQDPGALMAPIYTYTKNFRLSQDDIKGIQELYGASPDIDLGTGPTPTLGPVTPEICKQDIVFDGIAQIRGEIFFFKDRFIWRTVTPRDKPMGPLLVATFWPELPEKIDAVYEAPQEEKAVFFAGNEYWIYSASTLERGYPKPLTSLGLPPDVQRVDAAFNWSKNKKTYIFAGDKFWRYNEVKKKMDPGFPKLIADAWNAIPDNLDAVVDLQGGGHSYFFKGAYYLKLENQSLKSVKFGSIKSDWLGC
Text: as §1
as §2, with “MMP-2” for “MMP-1”, “902-MP)” for “901-MP)”

MMP-9 = molecular target: T3, MMP-9 (Homo sapiens, UniProt P14780); assay: In vitro MMP-9 inhibition test
T3 construct: purchased R&D Systems 911-MP
Text: as §1
as §2, with “Recombinant MMP-9” for “Recombinant MMP-1”, “Systems, 911-MP)” for “Systems, 901-MP)”, “example, 0.1” for “example, 2”, “the MMP-9” for “the MMP-1”

T3 sequence (P14780 107-707 limits assumed): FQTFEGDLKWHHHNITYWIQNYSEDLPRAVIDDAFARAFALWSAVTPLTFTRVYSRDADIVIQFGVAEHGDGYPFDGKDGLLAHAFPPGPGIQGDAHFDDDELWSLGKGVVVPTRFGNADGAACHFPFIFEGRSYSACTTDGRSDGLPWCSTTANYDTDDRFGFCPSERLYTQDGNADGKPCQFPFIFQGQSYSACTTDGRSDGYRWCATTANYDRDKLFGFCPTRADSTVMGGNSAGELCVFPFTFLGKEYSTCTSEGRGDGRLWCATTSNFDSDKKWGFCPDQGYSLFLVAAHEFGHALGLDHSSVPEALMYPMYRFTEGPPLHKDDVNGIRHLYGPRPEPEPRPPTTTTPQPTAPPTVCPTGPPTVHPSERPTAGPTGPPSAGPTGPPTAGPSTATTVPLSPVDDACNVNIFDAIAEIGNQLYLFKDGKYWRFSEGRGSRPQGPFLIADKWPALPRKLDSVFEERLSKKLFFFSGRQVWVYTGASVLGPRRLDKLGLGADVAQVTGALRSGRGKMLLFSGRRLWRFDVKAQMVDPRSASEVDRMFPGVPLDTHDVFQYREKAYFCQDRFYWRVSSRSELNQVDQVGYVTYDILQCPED

## O=C(O)[C@H]1[C@H](Cn2nnc3ccccc3c2=O)CC[C@@H]1C(=O)c1ccc(OCc2ccc(F)cc2)cc1 (racemic) [Example 1, (+/−)-(1RS,2RS,5SR)-2-{4-[(4-Fluorobenzyl)oxy]benzoyl}-5-[(4-oxo-1,2,3-benzotriazin-3(4H)-yl)methyl]cyclopentanecarboxylic acid]
MMP-1
  IC50: 5.2 µM
MMP-2
  IC50: 0.0093 µM
MMP-9
  IC50: 0.0047 µM

## O=C(O)[C@H]1[C@H](Cn2nnc3ccccc3c2=O)CC[C@@H]1C(=O)c1ccc(OCc2cccc(Cl)c2)cc1 (racemic) [Example 2, (+/−)-(1RS,2RS,5SR)-2-{4-[(3-Chlorobenzyl)oxy]benzoyl}-5-[(4-oxo-1,2,3-benzotriazin-3(4H)-yl)methyl]cyclopentanecarboxylic acid]
MMP-1
  IC50: > 40 µM
MMP-2
  IC50: 0.29 µM
MMP-9
  IC50: 0.48 µM

## O=C(O)[C@H]1[C@H](Cn2nnc3ccccc3c2=O)CC[C@@H]1C(=O)c1ccc(OCc2ccc(Cl)c(Cl)c2)cc1 (racemic) [Example 3, (+/−)-(1RS,2RS,5SR)-2-{4-[(3,4-Dichlorobenzyl)oxy]benzoyl}-5-[(4-oxo-1,2,3-benzotriazin-3(4H)-yl)methyl]cyclopentanecarboxylic acid]
MMP-1
  IC50: 16 µM
MMP-2
  IC50: 0.19 µM
MMP-9
  IC50: 0.9 µM

## O=C(O)[C@H]1[C@H](Cn2nnc3ccccc3c2=O)CC[C@@H]1C(=O)c1ccc(OCC2CCCC2)cc1 (racemic) [Example 4, (+/−)-(1RS,2RS,5SR)-2-[4-(Cyclopentylmethoxy)benzoyl]-5-[(4-oxo-1,2,3-benzotriazin-3(4H)-yl)methyl]cyclopentanecarboxylic acid]
MMP-1
  IC50: 28 µM
MMP-2
  IC50: 0.084 µM
MMP-9
  IC50: 0.13 µM

## O=C(O)[C@H]1[C@H](Cn2nnc3ccccc3c2=O)CC[C@@H]1C(=O)c1ccc(OCCC2CCCCC2)cc1 (racemic) [Example 5, (+/−)-(1RS,2RS,5SR)-2-[4-(2-Cyclohexylethoxy)benzoyl]-5-[(4-oxo-1,2,3-benzotriazin-3(4H)-yl)methyl]cyclopentanecarboxylic acid]
MMP-1
  IC50: > 40 µM
MMP-2
  IC50: 0.22 µM
MMP-9
  IC50: 0.96 µM

## O=C(O)[C@H]1[C@H](Cn2nnc3ccc(C(F)(F)F)cc3c2=O)CC[C@@H]1C(=O)c1ccc(OCc2ccccc2)cc1 (racemic) [Example 11, (+/−)-(1RS,2RS,5SR)-2-[4-(Benzyloxy)benzoyl]-5-{[4-oxo-6-(trifluoromethyl)-1,2,3-benzotriazin-3(4H)-yl]methyl}cyclopentanecarboxylic acid]
MMP-1
  IC50: 3.8 µM
MMP-2
  IC50: 0.21 µM
MMP-9
  IC50: 0.018 µM

## O=C(O)[C@H]1[C@H](Cn2nnc3ccc(C(F)(F)F)cc3c2=O)CC[C@@H]1C(=O)c1ccc(OCc2ccc(F)cc2)cc1 (racemic) [Example 12, (+/−)-(1RS,2RS,5SR)-2-{4-[(4-Fluorobenzyl)oxy]benzoyl}-5-{[4-oxo-6-(trifluoromethyl)-1,2,3-benzotriazin-3(4H)-yl]methyl}cyclopentanecarboxylic acid]
MMP-1
  IC50: 2.5 µM
MMP-2
  IC50: 0.042 µM
MMP-9
  IC50: 0.0059 µM

## Cc1cccc(COc2ccc(C(=O)[C@H]3CC[C@@H](Cn4nnc5ccc(C(F)(F)F)cc5c4=O)[C@@H]3C(=O)O)cc2)c1 (racemic) [Example 15, (+/−)-(1RS,2RS,5SR)-2-{4-[(3-Methylbenzyl)oxy]benzoyl}-5-{[4-oxo-6-(trifluoromethyl)-1,2,3-benzotriazin-3(4H)-yl]methyl}cyclopentanecarboxylic acid]
MMP-1
  IC50: 8.3 µM
MMP-2
  IC50: 0.48 µM
MMP-9
  IC50: 0.23 µM

## O=C(O)[C@H]1[C@H](Cn2nnc3ccc(C(F)(F)F)cc3c2=O)CC[C@@H]1C(=O)c1ccc(OCc2cccc(C(F)(F)F)c2)cc1 (racemic) [Example 18, (+/−)-(1RS,2SR,5RS)-2-{[4-Oxo-6-(trifluoromethyl)-1,2,3-benzotriazin-3(4H)-yl]methyl}-5-(4-{[3-(trifluoromethyl)benzyl]oxy}benzoyl)cyclopentanecarboxylic acid]
MMP-1
  IC50: > 40 µM
MMP-2
  IC50: 2 µM
MMP-9
  IC50: 0.94 µM

## O=C(O)[C@H]1[C@H](Cn2nnc3ccc(C(F)(F)F)cc3c2=O)CC[C@@H]1C(=O)c1ccc(OCCCc2ccccc2)cc1 (racemic) [Example 39, (+/−)-(1RS,2SR,5RS)-2-{[4-Oxo-6-(trifluoromethyl)-1,2,3-benzotriazin-3(4H)-yl]methyl}-5-[4-(3-phenylpropoxy)benzoyl]cyclopentanecarboxylic acid]
MMP-1
  IC50: > 40 µM
MMP-2
  IC50: 4.6 µM
MMP-9
  IC50: 0.78 µM

## O=C(O)[C@H]1[C@H](Cn2nnc3ccc(C(F)(F)F)cc3c2=O)CC[C@@H]1C(=O)c1ccc(OCC2CCCCC2)cc1 (racemic) [Example 40, (+/−)-(1RS,2RS,5SR)-2-[4-(Cyclohexylmethoxy)benzoyl]-5-{[4-oxo-6-(trifluoromethyl)-1,2,3-benzotriazin-3(4H)-yl]methyl}cyclopentanecarboxylic acid]
MMP-1
  IC50: 3.8 µM
MMP-2
  IC50: 0.44 µM
MMP-9
  IC50: 0.17 µM

## O=C(O)[C@H]1[C@H](Cn2nnc3ccc(C(F)(F)F)cc3c2=O)CC[C@@H]1C(=O)c1ccc(OCCCC2CCCCC2)cc1 (racemic) [Example 56, (+/−)-(1RS,2RS,5SR)-2-{4-(3-Cyclohexylpropoxy)benzoyl}-5-{[4-oxo-6-(trifluoromethyl)-1,2,3-benzotriazin-3(4H)-yl]methyl}cyclopentanecarboxylic acid]
MMP-1
  IC50: > 40 µM
MMP-2
  IC50: 2.8 µM
MMP-9
  IC50: 4.9 µM

## O=C(O)[C@H]1[C@H](Cn2nnc3ccc(C(F)(F)F)cc3c2=O)CC[C@@H]1C(=O)c1ccc(SCc2ccc(Cl)c(Cl)c2)cc1 (racemic) [Example 79, (+/−)-(1RS,2RS,5SR)-2-{4-[(3,4-Dichlorobenzyl)sulphanyl]benzoyl}-5-{[4-oxo-6-(trifluoromethyl)-1,2,3-benzotriazin-3(4H)-yl]methyl}cyclopentanecarboxylic acid]
MMP-1
  IC50: 15 µM
MMP-2
  IC50: 4 µM
MMP-9
  IC50: 3.2 µM

## CCCCCSc1ccc(C(=O)[C@H]2CC[C@@H](Cn3nnc4ccc(C(F)(F)F)cc4c3=O)[C@@H]2C(=O)O)cc1 (racemic) [Example 88, (+/−)-(1RS,2SR,5RS)-2-{[4-Oxo-6-(trifluoromethyl)-1,2,3-benzotriazin-3(4H)-yl]methyl}-5-[4-(pentylsulphanyl)benzoyl]cyclopentanecarboxylic acid]
MMP-1
  IC50: 2.5 µM
MMP-2
  IC50: 0.19 µM
MMP-9
  IC50: 0.055 µM
